Assays:
GR [1] = target: T1, GR (Homo sapiens, UniProt P04150); assay: GR luciferase reporter assay in HEK293/GRLuc cells; format: cell-based; conditions: for EC50: 48 hours
T1 construct: host or cells: HEK293 (HEK293/GRLuc; HEK293/GRLuc/MSR1 additionally transduced with human MSR1)
T1 sequence (P04150 524-758 limits assumed): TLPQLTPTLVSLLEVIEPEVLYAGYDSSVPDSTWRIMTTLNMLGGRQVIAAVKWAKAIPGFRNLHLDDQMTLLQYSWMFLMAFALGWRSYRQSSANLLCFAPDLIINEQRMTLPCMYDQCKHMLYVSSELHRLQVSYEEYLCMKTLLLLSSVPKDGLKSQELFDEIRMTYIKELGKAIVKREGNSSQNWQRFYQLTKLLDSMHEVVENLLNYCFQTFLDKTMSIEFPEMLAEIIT
Protocol: (§1) Activity of anti-MSR1 ncADCs were tested using an MSR1 ADC steroid responsive luciferase reporter assay. To generate the assay cell line, HEK293 cells were co-transfected with the pBind-GR (Promega, Cat #E158A) and pGL4.35 [Luc2P/9xGAL4UAS/Hygro] (Promega, Cat #E137A) vectors. The pBind-GR vector expresses a fusion protein consisting of the GR ligand binding and the yeast Gal4DNA-binding domain, which binds to the Gal4 upstream activation sequence (UAS) in the luciferase expression vector, that can induce luciferase expression following GR agonist binding. The cells were selected for at least 2 weeks in G418+hygromycin and the resulting cell line is referred to as HEK293/GRLuc. HEK293/GRLuc cells were then transduced with a human MSR1 lentiviral expression vector and 48 hours later cells were sorted for MSR1 positive cells. The resulting cell line is referred to as HEK293/GRLuc/MSR1.
(§2) Three-fold serial dilutions of ncADCs in assay buffer were added to the cells for 48 hours. The last well in the plate served as blank control containing only the assay media and was plotted as a continuation of the 3-fold serial dilution. Luciferase activity was determined using the One-Glo™ reagent (Promega, Cat #E6130). Relative light units (RLUs) were measured on an Envision luminometer (PerkinElmer) and EC50 values were determined using a four-parameter logistic equation over a 10-point dose response curve (GraphPad Prism). The signal to noise (S/N) was determined by taking the ratio of the highest RLU on the dose response curve to the RLU in the untreated wells.
(§3) To test the activity of GR agonist payloads disclosed herein, a cell-based GR responsive luciferase reporter assay was developed as described above.
(§4) Three-fold serial dilutions of free payloads were prepared in 100% DMSO, transferred to fresh assay media, and added to the cells for 48 hours. […] The last well in the plate served as blank control containing only the assay media and 0.2% DMSO (untreated well) and was plotted as a continuation of the 3-fold serial dilution. Luciferase activity was determined using the One-Glo™ reagent (Promega, Cat #E6130). Relative light units (RLUs) were measured on an Envision luminometer (PerkinElmer) and EC50 values were determined using a four-parameter logistic equation over a 10-point dose response curve (GraphPad Prism). The signal to noise (S/N) was determined by taking the ratio of the highest RLU on the dose response curve to the RLU in the untreated wells.

[2] = Metabolic stability with human liver microsomes; format: in vitro ADME; conditions: for Percent Remaining (%): Mean; for CLint scaled / half-life: human
Protocol: The metabolic stability of payload PIII-1 incubated with human liver microsomes was evaluated and the results were shown in the Table 7e below.

GR [3] = target: T1, GR; assay: GR luciferase reporter assay in HEK293/GRLuc/MSR1 cells; format: cell-based; conditions: Table 8b, free payloads; for S/N: HEK293/GRLuc/MSR1; for EC50: HEK293/GRLuc/MSR1, 48 hours
Protocol: as §1, §2, §3, §4

[4] = target: T2, human macrophage scavenger receptor 1 (MSR1) (human, UniProt P21757 1-451); assay: cell-based or functional assay
T2 sequence (looked up): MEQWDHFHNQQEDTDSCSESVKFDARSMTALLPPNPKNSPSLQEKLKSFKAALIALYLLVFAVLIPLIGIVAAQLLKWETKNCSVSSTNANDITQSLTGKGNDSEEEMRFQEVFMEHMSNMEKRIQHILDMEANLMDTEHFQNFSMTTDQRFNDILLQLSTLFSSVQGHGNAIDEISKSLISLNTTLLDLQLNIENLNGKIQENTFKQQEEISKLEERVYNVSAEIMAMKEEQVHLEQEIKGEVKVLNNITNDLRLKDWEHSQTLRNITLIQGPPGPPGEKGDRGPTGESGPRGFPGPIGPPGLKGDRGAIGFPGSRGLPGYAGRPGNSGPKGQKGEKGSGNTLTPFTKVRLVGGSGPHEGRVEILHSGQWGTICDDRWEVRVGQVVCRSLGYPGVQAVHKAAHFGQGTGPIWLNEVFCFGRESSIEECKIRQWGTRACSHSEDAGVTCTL

[5] = Lysosomal cleavage assay (payload release); format: in vitro ADME, human; conditions: 0 hours, 1 μM payload-equivalent ncADC, 37° C.; for Released Payload Precursor Concentration: precursor PIII-1 released; for Released Payload Concentration: steroid III released
Protocol: To confirm the release of payloads linked to antibodies via hemiaminal ether linkers, a lysosomal cleavage assay was performed. […] 200 μL of resulting mixture with 1 μM payload-equivalent ncADC was incubated at 37° C. with gentle shaking over a 24-hour period. A 20 μL aliquot was taken at 0, 0.5, 1.0, 2.0, 4.0, 8.0 and 24 hours and immediately transferred to a plate containing 80 μL cold acetonitrile to deactivate the lysosomal enzymes and precipitate the proteins. After centrifugation at 2,000 rpm for 5 minutes, aliquots of supernatant were diluted with an equal volume of water for LC-MS analysis to determine the amount of precursor and payload released from ncADC.

[6] = Table 8, ncADCs, highest RLU / RLU of untreated wells

## CCCC1O[C@@H]2C[C@H]3[C@@H]4C[C@H](F)C5=CC(=O)C=C[C@]5(C)[C@@]4(F)[C@@H](O)C[C@]3(C)[C@]2(C(=O)COCNC(=O)CN)O1 (stereo partly drawn) [PIII-1, 2-Amino-N-({2-[(1S,2S,4R,8S,9S,11S,12R,13S,19S)-12,19-difluoro-11-hydroxy-9,13-dimethyl-16-oxo-6-propyl-5,7-dioxapentacyclo[10.8.0.0^2,9.0^4,8.0^13,18]icosa-14,17-dien-8-yl]-2-oxoethoxy}methyl)acetamide]
GR [1]; Table 8b, free payloads
  S/N: 32.1
  EC50: 0.0465 nM
[2]; 0 min
  Percent Remaining (%): 100.00%
[2]; 5 min
  Percent Remaining (%): 59.35%
[2]; 15 min
  Percent Remaining (%): 23.58%
[2]; 30 min
  Percent Remaining (%): 6.83%
[2]; 45 min
  Percent Remaining (%): 2.68%
[2]
  CLint scaled: 223 mL/min/kg
  half-life: 7.8 min
GR [3]
  S/N: 179.3
  EC50: 0.0545 nM

## CCCC1O[C@@H]2C[C@H]3[C@@H]4C[C@H](F)C5=CC(=O)C=C[C@]5(C)[C@@]4(F)[C@@H](O)C[C@]3(C)[C@]2(C(=O)CO)O1 (stereo partly shown) [III]
GR [1]; Table 8b, free payloads
  S/N: 34.4
  EC50: 0.0197 nM
[2]; 0 min
  Percent Remaining (%): 100.00%
[2]; 5 min
  Percent Remaining (%): 16.15%
[2]; 15 min
  Percent Remaining (%): 0.75%
[2]; 30 min
  Percent Remaining (%): 0.76%
[2]; 45 min
  Percent Remaining (%): 0.14%
[2]
  CLint scaled: 811 mL/min/kg
  half-life: 2.14 min
GR [3]
  S/N: 156.7
  EC50: 0.0242 nM

B1: H1H21234N-N297Q-L1-PIII-1 (antibody, V domains shown)
VH: QVQLQESGPGLVKPSETLSLTCTVTGGSISRNYWSWIRQPPGKGLEWIGYIYYSGSIDYNPSLKSRVTISVDTSKNQFSLKLSSMTAADTAVYYCARDRWNWKYGMDVWGQGTTVIVSS
VL: EIVLTQSPGTLSLSPGERATLSCRASQTVRNNYLAWYHQKPGQAPRLLIYGASSRATGIPDRFSGSGSGTDFTLTISRLEPEDFTVYYCHQYGNSPWTFGQGTKMEIKR
modifications: heavy-chain constant region (not part of this entry): N297Q (EU); linker-payload L1-PIII-1 (DIBAC-suc-PEG4-vcPAB-PIII-1, payload 6,11-2F-budesonide III) clicked onto azido-PEG3-amine on glutamines; DAR 4
GR [1]; Table 8, ncADCs
  EC50: 50.6 nM
GR [1]; [6]
  S/N: 16.4
[4]
  EC50, GR luciferase reporter activity in HEK293/GRLuc/MSR1 cells: 0.0973 nM
  S/N (highest RLU / RLU in untreated wells), HEK293/GRLuc/MSR1 cells: 143
[5]
  Released Payload Precursor Concentration: 0 nM
  Released Payload Concentration: 0 nM

B2: H1H21234N-N297Q-L3-PIII-1 (antibody, V domains shown)
VH: QVQLQESGPGLVKPSETLSLTCTVTGGSISRNYWSWIRQPPGKGLEWIGYIYYSGSIDYNPSLKSRVTISVDTSKNQFSLKLSSMTAADTAVYYCARDRWNWKYGMDVWGQGTTVIVSS
VL: EIVLTQSPGTLSLSPGERATLSCRASQTVRNNYLAWYHQKPGQAPRLLIYGASSRATGIPDRFSGSGSGTDFTLTISRLEPEDFTVYYCHQYGNSPWTFGQGTKMEIKR
modifications: heavy-chain constant region (not part of this entry): N297Q (EU); linker-payload L3-PIII-1 (DIBAC-suc-PEG4-GGF-PIII-1) clicked onto azido-PEG3-amine on glutamines; DAR 4
GR [1]; Table 8, ncADCs
  EC50: 47.6 nM
GR [1]; [6]
  S/N: 17.5
[4]
  EC50, GR luciferase reporter activity in HEK293/GRLuc/MSR1 cells: 0.0854 nM
  S/N (highest RLU / RLU in untreated wells), HEK293/GRLuc/MSR1 cells: 269
[5]
  Released Payload Precursor Concentration: 0 nM
  Released Payload Concentration: 10.1 nM

Reference: patent US20230119539A1, “TRACELESS LINKERS AND PROTEIN-CONJUGATES THEREOF” (Regeneron Pharmaceuticals, Inc., priority 2019, published 2023)
